The numbers were not newly measured in patent US5763435A, “Sulfate conjugates of ursodeoxycholic acid, and their beneficial use in inflammatory disorders” (priority 1995, dated 1998), which cites them from elsewhere.

One data set deals with colonic epithelial cell. Conditions: in vitro; cited from earlier work.
The conditions of data set [1]: rat, in vivo; cited from earlier work.

As for `C[C@H](CCC(=O)O)[C@H]1CC[C@H]2[C@@H]3CC[C@@H]4C[C@H](O)CC[C@]4(C)[C@H]3C[C@H](O)[C@]12C` [deoxycholic, deoxycholic acid], the “Effect on colonic epithelial cell proliferation (in words)” value in the data set on colonic epithelial cell was “comitogenic”. In the case of `C[C@H](CCC(=O)O)[C@H]1CC[C@H]2[C@@H]3CC[C@@H]4C[C@H](O)CC[C@]4(C)[C@H]3CC[C@]12C` [lithocholic acids, lithocholic acid], the “Effect on colonic epithelial cell proliferation (in words)” value with colonic epithelial cell is on record as “comitogenic”. As to `C[C@H](CCC(=O)NCC(=O)O)[C@H]1CC[C@H]2[C@@H]3[C@H](OS(=O)(=O)O)C[C@@H]4C[C@H](OS(=O)(=O)O)CC[C@]4(C)[C@H]3CC[C@]12C` [glycochenodeoxycholic acid disulfates], the “Metabolism to 3α,7α-disulfate, 6β-hydroxy 5β-cholanoic acid” value in data set [1] is reported as 90%. `C[C@H](CCC(=O)NCCS(=O)(=O)O)[C@H]1CC[C@H]2[C@@H]3[C@H](OS(=O)(=O)O)C[C@@H]4C[C@H](OS(=O)(=O)O)CC[C@]4(C)[C@H]3CC[C@]12C` [taurochenodeoxycholic acid disulfates]: the “Metabolism to 3α,7α-disulfate, 6β-hydroxy 5β-cholanoic acid” value in data set [1] was 90%.
